Source: patent publication US20210355104A1, “ADENOSINE RECEPTOR BINDING COMPOUNDS” (Nikang Therapeuticsm Inc., priority 2018, published 2021)
“And” between values parts separate entries of the source, which are not always exact repeats. Identical values can stand only once.

target: Adenosine A2A receptor (Homo sapiens, UniProt P29274); assay: cAMP assay in 293A cells stably expressing the adenosine A2A receptor (CGS21680 stimulation, HTRF); format: cell-based; parameters: expressed in transfected cells; host or cells: 293A cells (Invitrogen, Cat# R705-07) infected with A2A-expressing lentivirus (custom packaged by Biosettia), puromycin selected; settings: 293A-A2AR cells, 0.1% BSA, 8 nM CGS; values separated by / are repeat determinations; read-out: cAMP (nM) 0.1% BSA, 8 nM CGS
Experimental: A 293A cell line (Invitrogen, Cat# R705-07) stably expressing the adenosine A2A receptor was generated in house. Briefly, 293A cells were seeded in 6-well plate and infected with A2A expressing lentivirus (custom packaged by Biosettia) and selected with puromycin (1 ug/ml). Cells survived selection were confirmed for A2A expression by RT-qPCR (RT Reagent: High-Capacity cDNA Reverse Transcription Kit, Applied Biosystems/Thermo Fisher Cat# 4368814, qPCR reagent: SYBR™ Green Master Mix, Applied Biosystems/Thermo Fisher Cat# 4309155). The cells were maintained in DMEM/F12 medium containing 10% FBS, 100 units/ml Penicillin, 100 μg/ml Streptomycin, and 1 μg/ml puromycin at 37° C., 5% CO2. 293A-A2AR cells were harvested on the day of assay and resuspended at 0.6 million cells/ml in DMEM/F12 with 0.1% BSA and 30 U/ml denosine deaminase(Roche, Cat #: 10102121001). Serial dilutions of compounds were prepared in DMEM/F12 with 0.1% BSA to a DMSO concentration of 0.6%. After 4 μl of compound dilutions were added, 4 μl suspended cells were dispensed into low-volume white 384-well plates (Greiner Bio-One). […] The assay plate was then incubated at room temperature for 30 min. 3 μl of d2 conjugated cAMP and 3 μl cryptate conjugated anti-cAMP antibody were then added. D2 conjugated cAMP and cryptate conjugated anti-cAMP antibody (Cisbio, Cat #: 62AM6PEC) were both prepared in cell lysis buffer according to the manufacturer's instruction. After 1 h incubation at room temperature, plates were read in CIARIOstar plate reader (BMG Labtech) using the HTRF detection mode.

Sequence of Adenosine A2A receptor (P29274 whole entry): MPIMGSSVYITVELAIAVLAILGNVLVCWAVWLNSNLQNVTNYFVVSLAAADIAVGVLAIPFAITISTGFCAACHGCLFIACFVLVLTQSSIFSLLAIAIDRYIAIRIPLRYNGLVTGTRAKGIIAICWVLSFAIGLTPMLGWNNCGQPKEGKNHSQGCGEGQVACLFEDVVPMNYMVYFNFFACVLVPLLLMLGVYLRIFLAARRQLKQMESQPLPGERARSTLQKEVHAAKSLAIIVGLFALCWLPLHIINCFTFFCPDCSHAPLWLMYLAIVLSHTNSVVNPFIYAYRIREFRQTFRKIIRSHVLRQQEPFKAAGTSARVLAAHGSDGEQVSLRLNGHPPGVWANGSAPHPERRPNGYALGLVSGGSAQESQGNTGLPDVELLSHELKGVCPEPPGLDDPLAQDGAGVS

IC50	SMILES
5.7 nM and 14 nM	CC(=O)Nc1ccc(CCOc2nc(N)nc(-c3ccccc3)c2-c2cc(C)nc(C(F)(F)F)c2)cc1 [Example 9, N-(4-(2-((2-amino-5-(2-methyl-6-(trifluoromethyl)pyridin-4-yl)-6-phenylpyrimidin-4-yl)oxy)ethyl)phenyl)acetamide]
0.9 nM and 1.2 nM	Cc1cc(-c2c(OCCN(C)c3ncccn3)nc(N)nc2-c2ccc(F)cc2)cc(C(F)F)n1 [Example 145, 5-(2-(difluoromethyl)-6-methylpyridin-4-yl)-4-(4-fluorophenyl)-6-(2-(methyl(pyrimidin-2-yl)amino)ethoxy)pyrimidin-2-amine]

same assay, conditions: 293A-A2AR cells, 0.1% BSA, 1 uM CGS; read-out: cAMP (nM) 0.1% BSA, 1 uM CGS

IC50	SMILES
> 2500 nM	Cc1cc(-c2c(OCCOC(C)(C)C(=O)O)nc(N)nc2-c2ccc(F)cc2)cc(C(F)F)n1 [Example 226]
107 nM	Cc1cc(-c2c(OCc3ccnn3CC3CC3)nc(N)nc2-c2ccc(F)cc2)cc(C(F)F)n1 [Example 229, 4-((1-(cyclopropylmethyl)-1H-pyrazol-5-yl)methoxy)-5-(2-(difluoromethyl)-6-methylpyridin-4-yl)-6-(4-fluorophenyl)pyrimidin-2-amine]
> 25000 nM	CCc1nn(CC(=O)O)nc1COc1nc(N)nc(-c2ccc(F)cc2)c1-c1cc(C)nc(C(F)F)c1 [Example 231, 2-(4-(((2-amino-5-(2-(difluoromethyl)-6-methylpyridin-4-yl)-6-(4-fluorophenyl)pyrimidin-4-yl)oxy)methyl)-5-ethyl-2H-1,2,3-triazol-2-yl)acetic acid]
4510 nM	CCc1c(COc2nc(N)nc(-c3ccc(F)cc3)c2-c2cc(C)nc(C(F)F)c2)nnn1CC(=O)O [Example 232, 2-(4-(((2-amino-5-(2-(difluoromethyl)-6-methylpyridin-4-yl)-6-(4-fluorophenyl)pyrimidin-4-yl)oxy)methyl)-5-ethyl-1H-1,2,3-triazol-1-yl)acetic acid]
16300 nM	CCc1nnn(CC(=O)O)c1COc1nc(N)nc(-c2ccc(F)cc2)c1-c1cc(C)nc(C(F)F)c1 [Example 233, 2-(5-(((2-amino-5-(2-(difluoromethyl)-6-methylpyridin-4-yl)-6-(4-fluorophenyl)pyrimidin-4-yl)oxy)methyl)-4-ethyl-1H-1,2,3-triazol-1-yl)acetic acid]
647 nM	Cc1cc(-c2c(OCc3nncn3CC3CC3)nc(N)nc2-c2ccc(F)cc2)cc(C(F)F)n1 [Example 234]
3710 nM	CCN1C(=O)OCC1COc1nc(N)nc(-c2ccc(F)cc2)c1-c1cc(C)nc(C(F)F)c1 (stereo not drawn) [Example 235, 4-(((2-amino-5-(2-(difluoromethyl)-6-methylpyridin-4-yl)-6-(4-fluorophenyl)pyrimidin-4-yl)oxy)methyl)-3-ethyloxazolidin-2-one]
> 25000 nM	Cc1cc(-c2c(OCc3nccn3CC(C)(C)O)nc(N)nc2-c2cccc(C#N)c2C)cc(C(F)F)n1 [Example 236, 3-(2-amino-5-(2-(difluoromethyl)-6-methylpyridin-4-yl)-6-((1-(2-hydroxy-2-methylpropyl)-1H-imidazol-2-yl)methoxy)pyrimidin-4-yl)-2-methylbenzonitrile]
2120 nM	CCn1nnc(COc2nc(N)nc(-c3cccc(C#N)c3C)c2-c2cc(C)nc(C(F)F)c2)n1 [Example 237, 3-(2-amino-5-(2-(difluoromethyl)-6-methylpyridin-4-yl)-6-((2-ethyl-2H-tetrazol-5-yl)methoxy)pyrimidin-4-yl)-2-methylbenzonitrile]
7920 nM	CCn1cnc(COc2nc(N)nc(-c3cccc(C#N)c3C)c2-c2cc(C)nc(C(F)F)c2)n1 [Example 239, 3-(2-amino-5-(2-(difluoromethyl)-6-methylpyridin-4-yl)-6-((1-ethyl-1H-1,2,4-triazol-3-yl)methoxy)pyrimidin-4-yl)-2-methylbenzonitrile]
17000 nM	Cc1cc(-c2c(OCc3ccncn3)nc(N)nc2-c2cccc(C#N)c2C)cc(C(F)F)n1 [Example 240, 3-(2-amino-5-(2-(difluoromethyl)-6-methylpyridin-4-yl)-6-(pyrimidin-4-ylmethoxy)pyrimidin-4-yl)-2-methylbenzonitrile]
2020 nM	Cc1cc(-c2c(OCc3nnn(CC(C)(C)O)n3)nc(N)nc2-c2ccc(F)cc2)cc(C(F)F)n1 [Example 242, 1-(5-(((2-amino-5-(2-(difluoromethyl)-6-methylpyridin-4-yl)-6-(4-fluorophenyl)pyrimidin-4-yl)oxy)methyl)-2H-tetrazol-2-yl)-2-methylpropan-2-ol]
2950 nM	CCn1nccc1COc1nc(N)nc(-c2cccc(C#N)c2C)c1-c1cc(C)nc(C(F)F)c1 [Example 243, 3-(2-amino-5-(2-(difluoromethyl)-6-methylpyridin-4-yl)-6-((1-ethyl-1H-pyrazol-5-yl)methoxy)pyrimidin-4-yl)-2-methylbenzonitrile]
756 nM	CCn1ccc(COc2nc(N)nc(-c3cccc(C#N)c3C)c2-c2cc(C)nc(C(F)F)c2)n1 [Example 244, 3-(2-amino-5-(2-(difluoromethyl)-6-methylpyridin-4-yl)-6-((1-ethyl-1H-pyrazol-3-yl)methoxy)pyrimidin-4-yl)-2-methylbenzonitrile]
265 nM	Cc1cc(-c2c(OCCCCO)nc(N)nc2-c2ccc(F)cc2)cc(C(F)F)n1 [Example 245, 4-((2-amino-5-(2-(difluoromethyl)-6-methylpyridin-4-yl)-6-(4-fluorophenyl)pyrimidin-4-yl)oxy)butan-1-ol]
981 nM	Cc1cc(-c2c(OCCN(C)c3cccnn3)nc(N)nc2-c2cccc(C#N)c2C)cc(C(F)F)n1 [Example 246, 3-(2-amino-5-(2-(difluoromethyl)-6-methylpyridin-4-yl)-6-(2-(methyl(pyridazin-3-yl)amino)ethoxy)pyrimidin-4-yl)-2-methylbenzonitrile]
552 nM and 742 nM and 1100 nM	Cc1cc(-c2c(OCCN(C)c3cccc(OCC(=O)O)n3)nc(N)nc2-c2ccc(F)cc2)cc(C(F)F)n1 [Example 248, 2-((6-((2-((2-amino-5-(2-(difluoromethyl)-6-methylpyridin-4-yl)-6-(4-fluorophenyl)pyrimidin-4-yl)oxy)ethyl)(methyl)amino)pyridin-2-yl)oxy)acetic acid]
7240 nM	Cc1cc(-c2c(OCc3nccn3CC(=O)O)nc(N)nc2-c2ccc(F)cc2)cc(C(F)F)n1 [Example 249, 2-(2-(((2-amino-5-(2-(difluoromethyl)-6-methylpyridin-4-yl)-6-(4-fluorophenyl)pyrimidin-4-yl)oxy)methyl)-1H-imidazol-1-yl)acetic acid]
8570 nM	Cc1cc(-c2c(OCCC(C)(C)C(=O)O)nc(N)nc2-c2cccc(C#N)c2C)cc(C(F)F)n1 [Example 250, 4-((2-amino-6-(3-cyano-2-methylphenyl)-5-(2-(difluoromethyl)-6-methylpyridin-4-yl)pyrimidin-4-yl)oxy)-2,2-dimethylbutanoic acid]
1280 nM	CCc1nn(CC(C)(C)O)nc1COc1nc(N)nc(-c2ccc(F)cc2)c1-c1cc(C)nc(C(F)F)c1 [Example 251, 1-(4-(((2-amino-5-(2-(difluoromethyl)-6-methylpyridin-4-yl)-6-(4-fluorophenyl)pyrimidin-4-yl)oxy)methyl)-5-ethyl-2H-1,2,3-triazol-2-yl)-2-methylpropan-2-ol]
1260 nM	CCc1c(COc2nc(N)nc(-c3ccc(F)cc3)c2-c2cc(C)nc(C(F)F)c2)nnn1CC(C)(C)O [Example 252, 1-(4-(((2-ainino-5-(2-(difluoromethyl)-6-methylpyridin-4-yl)-6-(4-fluorophenyl)pyrimidin-4-yl)oxy)methyl)-5-ethyl-1H-1,2,3-triazol-1-yl)-2-methylpropan-2-ol]
2150 nM	CCc1nnn(CC(C)(C)O)c1COc1nc(N)nc(-c2ccc(F)cc2)c1-c1cc(C)nc(C(F)F)c1 [Example 253, 1-(5-(((2-amino-5-(2-(difluoromethyl)-6-methylpyridin-4-yl)-6-(4-fluorophenyl)pyrimidin-4-yl)oxy)methyl)-4-ethyl-1H-1,2,3-triazol-1-yl)-2-methylpropan-2-ol]
23500 nM	CCc1nn(CC)nc1COc1nc(N)nc(-c2cccc(C#N)c2C)c1-c1cc(C)nc(C(F)F)c1 [Example 254, 3-(2-amino-6-((2,5-diethyl-2H-1,2,3-triazol-4-yl)methoxy)-5-(2-(difluoromethyl)-6-methylpyridin-4-yl)pyrimidin-4-yl)-2-methylbenzonitrile]

same assay, conditions: 293A-A2AR cells, 0.1% BSA, 1 uM CGS; values separated by / are repeat determinations; read-out: cAMP (nM) 0.1% BSA, 1 uM CGS

IC50 [nM]	SMILES
123	Cc1cc(-c2c(OCCN(C)c3ncccn3)nc(N)nc2-c2ccc(F)cc2)cc(C(F)F)n1 [Example 145, 5-(2-(difluoromethyl)-6-methylpyridin-4-yl)-4-(4-fluorophenyl)-6-(2-(methyl(pyrimidin-2-yl)amino)ethoxy)pyrimidin-2-amine]
> 25000	Cc1cc(-c2c(OCCN(C)c3ccncn3)nc(N)nc2-c2ccc(F)cc2)cc(C(F)F)n1 [Example 151, 5-(2-(difluoromethyl)-6-methylpyridin-4-yl)-4-(4-fluorophenyl)-6-(2-(methyl(pyrimidin-4-yl)amino)ethoxy)pyrimidin-2-amine]
